Data reported in BindingDB's records for PubMed 33314936 (n/a, 2020).

Assay: Agonist activity at human PGI2 receptor assessed as inhibition of ADP-induced platelet aggregation

IC50: 6.4 µM
SMILES: CC(C)N(CCCCOCC(=O)NS(C)(=O)=O)c1cnc(-c2ccccc2)c(-c2ccccc2)n1 [ACT-293987]
